# What was measured:
# Type in all cases: biochemical
# [1] = system: plasma membrane cell component enriched with SERCA; experiment: Plasma membrane cell component enriched with SERCA, response to CaCl2 (Example 7); settings: role: substrate, CaCl2 60 mOsm/L, ATP 100 μM, SERCA relocalized
# Text: (§1) In this example, an Endoplasmic Reticulum extracellular organelle vesicle and a plasma membrane cell component are isolated with micropipettes.
# (§2) The SERCA protein is over-expressed in cell 1 on its native organelle, the endoplasmic reticulum. In cell 2, SERCA is relocalized by genetic construction on the plasma membrane cell component. This finally serves to isolate with micropipettes, one endoplasmic reticulum extracellular vesicle with SERCA extracted from cell 1 and one plasma membrane cell component enriched with SERCA deriving from cell 2.
# (§3) These extracellular organelle vesicle and plasma membrane cell component were isolated thanks to ER and plasma membrane protein probes, over-expressed by COS7 cells, before organelle vesicle and plasma membrane cell component extraction.
# (§4) ER extracellular vesicle and plasma membrane cell component were both put in contact with CaCl2 (60 mOsm/L) and ATP (100 μM) during 5 minutes.
# (§5) At t=0s, CaCl2 (60 mOsm/L) and ATP (100 μM) were added.
# [2] = system: Endoplasmic Reticulum extracellular organelle vesicle (SERCA over-expressed); experiment: ER vesicle with over-expressed SERCA, response to CaCl2 (Example 7); settings: role: substrate, CaCl2 60 mOsm/L, ATP 100 μM
# Text: as §1, §2, §3, §4, §5
# [3] = system: nucleus cell component (SERCA pump); experiment: Nucleus cell component response to CaCl2 (Example 6); settings: role: substrate, CaCl2 60 mOsm/L / 20 mOsm/L, ATP 100 μM, FIG. 8
# Method: (§6) In this example, an Endoplasmic Reticulum extracellular organelle vesicle and a nucleus cell component are isolated together from a same cell with one micropipette, and visualized. ER extracellular organelle vesicle and nucleus cell component were both put in contact with CaCl2 (20 mOsm/L) and ATP (100 μM) during 5 minutes.
# (§7) FIG. 8 represents Endoplasmic Reticulum extracellular organelle vesicle and nucleus cell component are maintained thanks one micropipette into a HKM diluted buffer (30 mOsm/L). The extracellular organelle vesicle and the nucleus cell component were respectively isolated thanks to ER and nucleus probes, over-expressed by COS7 cells, before organelle vesicle and nucleus extraction.
# (§8) At t=0s, CaCl2 (60 mOsm/L) and ATP (100 μM) were added. Dotted line circle corresponds to the size of the endoplasmic reticulum vesicle before contacting with CaCl2.
# [4] = system: Ca^2+ pump of the Endoplasmic Reticulum; experiment: Abnormal expression/activity of Ca2+ pump of ER by vesicle morphological change (Example 2)
# Method: (§9) FIG. 3 A) represents an extracellular organelle vesicle of endoplasmic reticulum (ER) which is maintained thanks to a micropipette into a HKM diluted buffer (20 mOsm/L) as an extravesicular aqueous medium. This extracellular organelle vesicle has been isolated thanks to an ER resident protein (KDEL), over-expressed by COS7 cells, before organelle vesicles extraction.
# At t=0s, CaCl2 (60 mOsm/L) and ATP (100 μM) were added. At t=20s, the ER extracellular organelle vesicle is deflated: it reached its minimum volume (Vi1) and its associated maximum fluorescence signal (Fi1).
# [5] = system: ER extracellular organelle vesicle; experiment: Ca2+ internalization in ER extracellular organelle vesicle by Fluo8-AM fluorescence (Example 3); settings: role: substrate, CaCl2 30 mOsm/L, ATP 100 μM, FIG. 5
# Method: FIG. 5 represents an ER extracellular organelle vesicle which is maintained thanks to a micropipette into a HKM diluted buffer (20 mOsm/L). This extracellular organelle vesicle has been isolated thanks to an ER resident protein (KDEL), over-expressed by COS7 cells, before organelle vesicles extraction. Before organelle extraction, cells were incubated during 1 h with a fluorophore called “Fluo8-AM” to report for calcium volumic concentration in organelles thanks to green fluorescence emission.
# At t=0s, CaCl2 (30 mOsm/L) and ATP (100 μM) were added. Fluorescence microscopy snaps are visualized on FIG. 5 and show calcium concentration inside the ER extracellular organelle vesicle during the experiment.
# [6] = system: ion pump SERCA localized on Endoplasmic Reticulum vesicles; experiment: Ca2+ pump transporting activity by morphological change (deflation/re-swelling) of ER extracellular organelle vesicles (Example 1)
# Method: An initial HKM buffer was prepared with 50 mM Hepes (known as 2-[4-(2-hydroxyethyl)piperazin-1-yl]ethanesulfonic acid), 120 mM potassium acetate, and 1 mM MgCl2 (in Milli-Q water) at pH 7.4. Said initial HKM buffer has an osmolarity of 280±15 mOsm/L.
# Then, a membrane tension is applied on cells so as to produce extracellular organelle vesicles without lysing them. At that step, the extracellular organelle vesicles are released (or produced) thanks to the lysis and the removal of the plasma membrane. The membrane tension is carried out by micro-manipulation of the cells under confocal microscope thanks to a micropipette aspiration technique. Micropipette radius is around 1 μm. Thanks to a slight aspiration, a bilayer tongue of the plasma membrane was sucked into the micropipette. The aspiration is then increased at an approximate rate of 10 mbar/min, causing a proportional increase in the bilayer surface tension. At a certain applied tension (e.g. surface tension<0.75 mN/m), the plasma membrane ruptured thanks to a pore opening in the plasma membrane and the extracellular organelle vesicles are released (or extracted).
# After extraction, one or more extracellular organelle vesicles are isolated using a micropipette. The micropipettes are used to hold a vesicle during the following methods of the present invention. Before the addition of molecules (ions, sugars or drug molecules), an acquisition is launched to observe the initial size of the vesicle.
# Once the acquisition is started, the extracellular organelle vesicle, held by the micropipette is passed through an aqueous solution containing CaCl2 (60 mOsm/L) and ATP (100 μM). Contacting calcium ions with said extracellular organelle vesicle increases the osmolarity of the extravesicular aqueous medium. […] This innovative process allows to examine the transporting activity of the ion pump SERCA localized on Endoplasmic Reticulum vesicles.
# as §9, with “1” for “3”
# At t=0s, CaCl2 (60 mOsm/L) and ATP (100 μM) were added. At t=20s, the ER extracellular organelle vesicle is deflated: it reached its minimum volume (Vi1) and its associated maximum fluorescence signal (Fl1).
# Once the acquisition is started, the ER extracellular organelle vesicle, held by the micropipette is passed through an aqueous solution containing sucrose (60 mOsm). […] Sucrose can thus be used as a control or reference in the method of the present invention.
# [7] = system: Endoplasmic Reticulum extracellular organelle vesicle (SERCA pump); experiment: ER vesicle response to CaCl2 compared with nucleus (Example 6); settings: role: substrate, CaCl2 60 mOsm/L / 20 mOsm/L, ATP 100 μM, FIG. 8
# Method: as §6, §7, §8
# [8] = system: Endoplasmic Reticulum extracellular organelle vesicle (SERCA pump); experiment: SERCA specificity: ER vesicle response to CaCl2 (Example 5); settings: role: substrate, CaCl2 30 mOsm/L, ATP 100 μM, FIG. 7
# Method: (§10) In this example, an Endoplasmic Reticulum extracellular organelle vesicle and a mitochondria extracellular organelle vesicle are isolated simultaneously with micropipettes, and visualized. ER and mitochondria extracellular organelle vesicles were both put in contact with CaCl2 (30 mOsm/L) and ATP (100 μM) during one hour.
# (§11) FIG. 7 represents Endoplasmic Reticulum extracellular organelle vesicle and mitochondria extracellular organelle vesicle are maintained thanks two micropipettes into a HKM diluted buffer (30 mOsm/L). These extracellular organelle vesicles were isolated thanks to ER and mitochondria resident proteins, over-expressed by COS7 cells, before organelle vesicles extraction.
# (§12) At t=0s, CaCl2 (30 mOsm/L) and ATP (100 μM) were added. Dotted line circles all correspond to the size of the vesicle before contacting with CaCl2.
# [9] = system: mitochondria extracellular organelle vesicle; experiment: SERCA specificity: mitochondria vesicle response to CaCl2 (Example 5); settings: role: substrate, CaCl2 30 mOsm/L, ATP 100 μM, FIG. 7
# Method: as §10, §11, §12
# [10] = role: substrate, CaCl2 60 mOsm/L, ATP 100 μM, FIG. 3
# [11] = role: substrate, CaCl2 60 mOsm/L, ATP 100 μM, FIG. 1
structure (smiles),measurement,setting,value
[Ca+2].[Cl-].[Cl-] [CaCl2],plasma membrane cell component response 5 min after contacting,[1],has deflated
same,ER vesicle volume 5 min after contacting,[2],exhibits a bigger volume as its initial one
same,nucleus cell component response 5 min after contacting,[3],has deflated with no re-swelling
same,time at which vesicle is deflated to minimum volume (Vi1) and maximum fluorescence (Fi1),[4]; [10],20 s
same,time at which vesicle re-swells to final volume and fluorescence (Vf and Ff),[4]; [10],90 s
same,vesicle volume at t=300s versus initial state,[4]; role: substrate; CaCl2 60 mOsm/L; ATP 100 μM; FIG. 3 B),reached a higher volume than the initial state
same,internalization in the ER extracellular organelle vesicle,[5],internalized in the ER extracellular organelle vesicle
same,Fluo8-AM fluorescence signal (calcium concentration inside vesicle),[5]; cells incubated 1 h with Fluo8-AM,Fluorescence signal is rising after addition of CaCl2
same,re-swelling process of vesicle,"[6]; role: substrate, 60 mOsm/L, following minutes, CaCl2 with ATP (100 μM), sucrose as control",a re-swelling process is gradually observed
same,deflation of vesicle on contacting,"[6]; role: substrate, CaCl2 60 mOsm/L with ATP (100 μM), or sucrose 60 mOsm without ATP stated, vesicle internal 20 mOsm/L, COS7 ER vesicle",the vesicle deflates in a few seconds
same,time at which vesicle is deflated to minimum volume (Vi1) and maximum fluorescence,[6]; [11],20 s
same,time at which vesicle re-swells to final volume and fluorescence (Vf and Ff),[6]; [11],90 s
same,swelling state of vesicle at t=100s,[6]; role: substrate; CaCl2 60 mOsm/L; ATP 100 μM; FIG. 1 B),the vesicle has almost reached its initial state of swelling
same,Vf/Vi1 and Vf/Vi versus reference ratio (transporting activity of SERCA),"[6]; role: substrate, sucrose as reference compound, FIGS. 1 and 2","Vf/Vi1>Vf,ref/Vi1,ref, and Vf/Vi>Vf,ref/Vi,ref"
same,ER vesicle volume 5 min after contacting,[7],exhibits a bigger volume as its initial one
same,ER vesicle volume 1h after contacting,[8],exhibits the same volume as its initial one
same,mitochondria vesicle volume 1h after contacting,[9],has deflated

# Source: patent US20260376283A1, “A METHOD IMPLEMENTING MORPHOLOGICAL CHANGES OF EXTRACELLULAR ORGANELLE VESICLES SO AS TO EXAMINE THE TRANSPORTING ACTIVITY OF MEMBRANE TRANSPORT PROTEINS AND OTHER RELATED METHODS” (PARIS SCIENCES ET LETTRES, priority 2023, published 2026)
